Legend:
[1] = system: hospitalized COVID-19 patients; settings: interim report, WHO solidarity trial; cited from earlier work
C2 and PC cells = type: cell-based, rat; settings: serum-starved C2 cells (TYMP-overexpressing VSMC)

Molecule	effect on hospitalized COVID-19 patients [1]	NF-κB activation (p65 phosphorylation at T254) (C2 and PC cells)
CCN(CCO)CCCC(C)Nc1ccnc2cc(Cl)ccc12 (stereo not drawn) [hydroxychloroquine]	little or no effect	–
Cc1cccc(C)c1OCC(=O)N[C@@H](Cc1ccccc1)[C@@H](O)C[C@H](Cc1ccccc1)NC(=O)[C@H](C(C)C)N1CCCNC1=O [lopinavir]	little or no effect	–
Pam3CSK4	–	dramatically increased

From patent US20240159750A1, “METHODS FOR DIAGNOSIS AND TREATMENT OF COVID-19” (priority 2021, published 2024)
